These results are taken from patent US20080171659A1, “Insecticidally Coated Fertilizer Solids” (priority 2007, published 2008).

The series is classed as physicochemical. From the text:
U.S. Pat. No. 5,783,203 mentions acetone as a solvent for imidacloprid. […] Using a 6 wt % imidacloprid in acetone would mean applying 1.67 wt % of the solution on the fertilizer based on the combined weight of the fertilizer and the solution to achieve a product with 0.10 wt % imidacloprid. This would be very difficult to achieve a dry product. Fertilizer products with 0.2 wt % and 0.5 wt % imidacloprid would require 3.33 wt % and 8.33 wt % respectively of the imidacloprid solution absorbed onto the fertilizer; concentrations which are not likely feasible in acetone. In addition, acetone is volatile and highly flammable which would make processing very difficult and expensive.

As for `O=[N+]([O-])NC1=NCCN1Cc1ccc(Cl)nc1` [imidacloprid], the solubility entry is on record as “less than 7 wt %”.
